Assay results from ChEMBL document CHEMBL1201862, “PubChem BioAssay data set” (2004).
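Briefly, cells in 96-well plates were exposed to five compound concentrations for 48 h, and endpoints were estimated by linear interpolation. Abbreviation: GI50, concentration required for 50% inhibition of growth.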 Active and inactive are the calls of the source. Rule as the data show it: active = GI50 up to about 1.1 µM and inactive = higher.

How the values were obtained:
Test in all cases: NCI-60 cell line screen, 48 h
MDA-MB-435 = tested on: MDA-MB-435
SK-MEL-5 = tested on: SK-MEL-5
BT-549 = tested on: BT-549
SNB-19 = tested on: SNB-19
HOP-92 = tested on: HOP-92
Malme-3M = tested on: Malme-3M
Hs-578T = tested on: Hs-578T
CAKI-1 = tested on: CAKI-1
UACC-62 = tested on: UACC-62
SF-268 = tested on: SF-268
MDA-MB-231 = tested on: MDA-MB-231
A549 = tested on: A549
OVCAR-3 = tested on: OVCAR-3
MOLT-4 = tested on: MOLT-4
NCI-H522 = tested on: NCI-H522
786-0 = tested on: 786-0
K562 = tested on: K562
NCI-H23 = tested on: NCI-H23
HCT-116 = tested on: HCT-116

Compound | GI50 (MDA-MB-435) | GI50 (SK-MEL-5) | GI50 (BT-549) | GI50 (SNB-19) | GI50 (HOP-92) | GI50 (Malme-3M) | GI50 (Hs-578T) | GI50 (CAKI-1) | GI50 (UACC-62) | GI50 (SF-268) | GI50 (MDA-MB-231) | GI50 (A549) | GI50 (OVCAR-3) | GI50 (MOLT-4) | GI50 (NCI-H522) | GI50 (786-0) | GI50 (K562) | GI50 (NCI-H23) | GI50 (HCT-116)
CC1=C(C(=O)N[C@@H](Cc2ccccc2)C(=O)O)N2C(=O)[C@@H](NC(=O)[C@@H](N)CC(C)C)[C@H]2SC1 | > 100 µM (inactive) | > 100 µM (inactive) | > 100 µM (inactive) | > 100 µM (inactive) | > 100 µM (inactive) | > 100 µM (inactive) | > 100 µM (inactive) | > 100 µM (inactive) | > 100 µM (inactive) | > 100 µM (inactive) | > 100 µM (inactive) | > 100 µM (inactive) | > 100 µM (inactive) | > 100 µM (inactive) | > 100 µM (inactive) | > 100 µM (inactive) | > 100 µM (inactive) | – | –
N=C(N)N/N=C(\c1ccc(Cl)cc1)C1CC1 | 16.9 µM (inactive) | 15.6 µM (inactive) | 24.6 µM (inactive) | 29 µM (inactive) | 22.3 µM (inactive) | 14.9 µM (inactive) | 25 µM (inactive) | 39 µM (inactive) | 15.9 µM (inactive) | 28.9 µM (inactive) | 18.5 µM (inactive) | 32.4 µM (inactive) | 19.4 µM (inactive) | – | 14.8 µM (inactive) | 16.9 µM (inactive) | 34.8 µM (inactive) | 27.1 µM (inactive) | 16 µM (inactive)
CC(NC(=O)NC(C)(C)C)NC(=O)C(N)CC(=O)O (stereo unspecified) | > 100 µM (inactive) | > 100 µM (inactive) | > 100 µM (inactive) | > 100 µM (inactive) | > 100 µM (inactive) | > 100 µM (inactive) | > 100 µM (inactive) | > 100 µM (inactive) | 14.4 µM (inactive) | > 100 µM (inactive) | > 100 µM (inactive) | > 100 µM (inactive) | > 100 µM (inactive) | > 100 µM (inactive) | > 100 µM (inactive) | > 100 µM (inactive) | > 100 µM (inactive) | > 100 µM (inactive) | > 100 µM (inactive)
CC(=O)OC(CCC1(C)OC1COc1ccc(CCNC(=O)C=C(C)C)cc1)C(C)(C)OC(C)=O (stereo unspecified) | 16.2 µM (inactive) | 0.502 µM (active) | 0.377 µM (active) | > 100 µM (inactive) | > 100 µM (inactive) | 23.5 µM (inactive) | 59.3 µM (inactive) | > 100 µM (inactive) | 18.4 µM (inactive) | > 61.2 µM (inactive) | > 100 µM (inactive) | 29.3 µM (inactive) | 16.8 µM (inactive) | 8.93 µM (inactive) | 19.5 µM (inactive) | > 100 µM (inactive) | – | 0.647 µM (active) | 0.611 µM (active)
O=C(Nc1nc(C23CC4CC(CC(C4)C2)C3)cs1)c1cc2ccc(O)cc2oc1=O | 8.38 µM (inactive) | 13.7 µM (inactive) | > 10 µM (inactive) | 18.4 µM (inactive) | 3.7 µM (inactive) | 12 µM (inactive) | 14.5 µM (inactive) | 19.6 µM (inactive) | – | 16.9 µM (inactive) | 6.04 µM (inactive) | 15.9 µM (inactive) | 13.8 µM (inactive) | 5.9 µM (inactive) | 10.2 µM (inactive) | 11.6 µM (inactive) | 4.88 µM (inactive) | 11.7 µM (inactive) | 10.1 µM (inactive)
COc1cc2cc(C(=O)Nc3cc4n(n3)-c3ccccc3C4)[nH]c2c(OC)c1OC | 1.44 µM (inactive) | 1.41 µM (inactive) | 1.19 µM (inactive) | 9.48 µM (inactive) | 2.18 µM (inactive) | 1.29 µM (inactive) | 2.98 µM (inactive) | 1.72 µM (inactive) | – | 6.19 µM (inactive) | 8.04 µM (inactive) | 1.81 µM (inactive) | 2.19 µM (inactive) | 1.03 µM (active) | 1.08 µM (active) | 8.39 µM (inactive) | 3.36 µM (inactive) | 2.75 µM (inactive) | 2.73 µM (inactive)
CC1=NC(=Cc2ccccc2O)C(=O)N1n1c(-c2ccccc2)nc2ccccc2c1=O | 46.9 µM (inactive) | 23.8 µM (inactive) | 57.7 µM (inactive) | 65.5 µM (inactive) | 31.9 µM (inactive) | 80.5 µM (inactive) | 51.1 µM (inactive) | – | 14.3 µM (inactive) | 33.7 µM (inactive) | 33.2 µM (inactive) | 35.1 µM (inactive) | 26.7 µM (inactive) | 20.6 µM (inactive) | 62.8 µM (inactive) | 45.5 µM (inactive) | 30.5 µM (inactive) | 32.8 µM (inactive) | 26.5 µM (inactive)
Cc1ccc(C2=Nc3c(N)nc(N)nc3NC(c3ccccc3)C2)cc1 (stereo unspecified) | 1.92 µM (inactive) | – | 7.23 µM (inactive) | 14.2 µM (inactive) | 11.7 µM (inactive) | 9.66 µM (inactive) | 14 µM (inactive) | 14 µM (inactive) | 8.15 µM (inactive) | 14.3 µM (inactive) | 11.8 µM (inactive) | 10.2 µM (inactive) | 11.5 µM (inactive) | 7.43 µM (inactive) | 3.13 µM (inactive) | 13.2 µM (inactive) | 3.51 µM (inactive) | 11.1 µM (inactive) | 4.11 µM (inactive)
CCOC(=O)CC1CCN(C(=O)c2ccccc2)C2Cc3c([nH]c4ccccc34)C12C[N+](=O)[O-] (stereo unspecified) | 97.3 µM (inactive) | 57.8 µM (inactive) | > 100 µM (inactive) | – | 40.6 µM (inactive) | > 100 µM (inactive) | > 100 µM (inactive) | 62.2 µM (inactive) | 58.7 µM (inactive) | > 100 µM (inactive) | > 100 µM (inactive) | – | – | 35 µM (inactive) | > 100 µM (inactive) | – | 36.4 µM (inactive) | 73.6 µM (inactive) | –
CC#CC#C/C=C1/O[C@]2(CCC(OC(=O)CC(C)C)CO2)[C@@H]2O[C@H]12 (stereo partly specified) | 21.1 µM (inactive) | – | 24.1 µM (inactive) | 61.7 µM (inactive) | 27.4 µM (inactive) | 21.8 µM (inactive) | 52.5 µM (inactive) | 18.2 µM (inactive) | 23.3 µM (inactive) | 24.4 µM (inactive) | 24 µM (inactive) | 39.6 µM (inactive) | 21.5 µM (inactive) | 18.7 µM (inactive) | 19.3 µM (inactive) | 20.9 µM (inactive) | 31.3 µM (inactive) | 24.5 µM (inactive) | 15.4 µM (inactive)
Cc1c(-c2ccccc2)c(C#N)c2nnn(C)c(=O)n12 | > 100 µM (inactive) | > 100 µM (inactive) | > 100 µM (inactive) | > 100 µM (inactive) | > 100 µM (inactive) | > 100 µM (inactive) | > 100 µM (inactive) | > 100 µM (inactive) | > 100 µM (inactive) | > 100 µM (inactive) | > 100 µM (inactive) | > 100 µM (inactive) | > 100 µM (inactive) | – | > 100 µM (inactive) | > 100 µM (inactive) | > 100 µM (inactive) | > 100 µM (inactive) | > 100 µM (inactive)
CN(C)c1ccc(/C=N/n2c(-c3ccccc3)nc3ccccc3c2=O)cc1 | 79.4 µM (inactive) | 33.3 µM (inactive) | 65.8 µM (inactive) | 40.8 µM (inactive) | 90.8 µM (inactive) | > 100 µM (inactive) | 20 µM (inactive) | 29.7 µM (inactive) | 58.9 µM (inactive) | 44 µM (inactive) | 30 µM (inactive) | 53.5 µM (inactive) | > 100 µM (inactive) | 34.4 µM (inactive) | 49.3 µM (inactive) | > 100 µM (inactive) | – | 28.3 µM (inactive) | 50.6 µM (inactive)
Oc1c(Br)c(-c2ccccc2)nc2ccccc12 | 43.3 µM (inactive) | 8.15 µM (inactive) | 58.1 µM (inactive) | > 10 µM (inactive) | 8 µM (inactive) | 53.2 µM (inactive) | > 89.1 µM (inactive) | 6.32 µM (inactive) | 21.9 µM (inactive) | > 10 µM (inactive) | 2.87 µM (inactive) | 1.98 µM (inactive) | 50.5 µM (inactive) | 8.15 µM (inactive) | > 10 µM (inactive) | – | 1.9 µM (inactive) | 22.1 µM (inactive) | 53.3 µM (inactive)
Cc1c(C(=O)NNc2ccccc2)n2c(S)nnc2c2ccccc12 | > 100 µM (inactive) | > 100 µM (inactive) | 97.3 µM (inactive) | > 100 µM (inactive) | > 100 µM (inactive) | – | > 100 µM (inactive) | > 100 µM (inactive) | > 100 µM (inactive) | > 100 µM (inactive) | > 100 µM (inactive) | > 100 µM (inactive) | > 100 µM (inactive) | 83.2 µM (inactive) | > 100 µM (inactive) | > 100 µM (inactive) | > 100 µM (inactive) | > 100 µM (inactive) | > 100 µM (inactive)
CC(C)=CCC[C@@H](C)C1=C(O)C(=O)C(C)=C(Nc2ccccc2F)C1=O | 36.7 µM (inactive) | 12.5 µM (inactive) | 17.5 µM (inactive) | 15.2 µM (inactive) | 21.1 µM (inactive) | 10.2 µM (inactive) | 9.62 µM (inactive) | 16.1 µM (inactive) | 12.1 µM (inactive) | 9.77 µM (inactive) | 28.4 µM (inactive) | 17.2 µM (inactive) | 4.1 µM (inactive) | 5.68 µM (inactive) | – | 21.3 µM (inactive) | 9.62 µM (inactive) | 12.7 µM (inactive) | 13.3 µM (inactive)
